“Also recorded” adds a separate entry of the source. Read-outs that look alike come from different tables or passages of the source. Oligonucleotides are written 5' to 3', each unit as a sugar letter and its base; * is a phosphorothioate linkage, no mark a phosphodiester; rarer units and linkages stand in square brackets, end groups in braces. Plain capitals give the bases only. r = 2'-OH (RNA)
Assays:
[1] = tested on: human peripheral blood mononuclear cells (PBMC); assay: TNF-α production by human PBMC (ELISA of culture supernatants); type: cell-based; settings: human PBMC from three donors, 24 hours, oligonucleotide 0.001-4 μM, in the presence of DOTAP (20 μg/ml); FIG. 3 and FIG. 4
Experimental: (§1) Human peripheral blood mononuclear cells (PBMC) were isolated from three donors and incubated for 24 hours in the presence of various test or control oligonucleotides or control conditions, in either the presence or absence of DOTAP (20 μg/ml). Oligonucleotides were added at different concentrations ranging from 0.001-4 μM. Culture supernatants were then collected and then analyzed by separate enzyme-linked immunosorbent assays (ELISAs) specific for human interferon alpha (IFN-α) and tumor necrosis factor alpha (TNF-α).
(§2) Control oligonucleotides and conditions included R-1012, rU*rU*rU*rU*rU*rU*rU*rU, where * represents phosphorothioate linkage and rU represents uridine; R-1075 (SEQ ID NO:206, fully phosphorothioate backbone), R-1362, rU*rU*rG*rU*rU*rG*rU*rU*rG*rU*rU*rG*rU*rU*rG*rU*rU*rG*rU*rU (SEQ ID NO:331), where * again represents phosphorothioate linkage, rU again represents uridine, and rG represents guanosine; CpG oligodeoxynucleotide 2395, T*C*G*T*C*G*T*T*T*T*C*G*G*C*G*C*G*C*G*C*C*G (SEQ ID NO:330), lipopolysaccharide (LPS), DOTAP, and no additive (w/o).
(§3) Test oligonucleotides included the following modifications of R-1012: R-1907, rU*rU*rU*rU*rU*rU*rU*rU-teg, where teg represents triethylene glycol; R-1908, rU*rU*rU*rU*rU*rU*rU*5SrU-teg, where 5S represents a linkage according to Formula II wherein X is O, X^1 is SH, X^2 is O, and X^3 is S; R-1909, rU*rU*rU*rU*rU*5SrU*rU*5SrU-teg; R-1910, rU*rU*rU*5SrU*rU*5SrU*rU*5SrU-teg; and R-1911, rU*5SrU*rU*5SrU*rU*5SrU*rU*5SrU-teg.

[2] = tested on: human peripheral blood mononuclear cells (PBMC); assay: IFN-α production by human PBMC (ELISA of culture supernatants); type: cell-based; settings: human PBMC from three donors, 24 hours, oligonucleotide 0.001-4 μM, in the presence of DOTAP (20 μg/ml); FIG. 1 and FIG. 2
Experimental: as §1, §2, §3

[3] = Stability against nuclease degradation in human serum (IP-RP-HPLC); type: in vitro ADME
Experimental: Oligoribonucleotides R-1075 (SEQ ID NO:206), without triethylene glycol (teg) modification, and R-1907, with teg modification, were analysed using ion-pair reverse phase high pressure liquid chromatography (IP-RP-HPLC) following incubation in water or human serum for 1 to 60 minutes. While both of these oligoribonucleotides have fully phosphorothioate backbones, R-1075 is more than twice as long (18 nucleotides) as R-1907 (8 nucleotides). R-1075 incubated in water for 1 minute produced a single, sharp peak upon IP-RP-HPLC. […] R-1907 also produced a single, sharp peak following incubation in water for 1 minute. […] In fact, the peak height for R-1907 decreased by only about 50 percent following incubation in human serum for 60 minutes.

Substance | TNF-α production [1] | IFN-α production [2] | IP-RP-HPLC peak of the oligoribonucleotide after incubation in human serum [3] | decrease of IP-RP-HPLC peak height after incubation in human serum [3] | IP-RP-HPLC peak of the oligoribonucleotide after incubation in human serum ([3]; human serum, 1 minute, compared with incubation in water for 1 minute)
rU*rU*rU*5SrU*rU*5SrU*rU*5SrU-teg [R-1910] | significantly higher amounts of TNF-a compared to unmodified R-1012 | did not induce significant amounts of IFN-α |  |  | 
rU*rU*rU*rU*rU*5SrU*rU*5SrU-teg [R-1909] | significantly higher amounts of TNF-a compared to unmodified R-1012 | increase in IFN-α induction compared to R-1907 |  |  | 
rU*rU*rU*rU*rU*rU*rU*rU-teg [R-1907] | enhanced TNF-α production compared to unmodified R-1012; also recorded: significantly higher amounts of TNF-a compared to unmodified R-1012 | reduced IFN-α production compared to unmodified R-1012 | persisted essentially unchanged | about 50% | 
rU*rU*rU*rU*rU*rU*rU*5SrU-teg [R-1908] | significantly higher amounts of TNF-a compared to unmodified R-1012 | increase in IFN-α induction compared to R-1907 |  |  | 
rU*5SrU*rU*5SrU*rU*5SrU*rU*5SrU-teg [R-1911] | significantly higher amounts of TNF-a compared to unmodified R-1012 | did not induce significant amounts of IFN-α |  |  | 
R-1075: control oligoribonucleotide, SEQ ID NO:206 (CCGUCUGUUGUGUGACUC), fully phosphorothioate backbone, 18 nucleotides, without teg modification (rC*rC*rG*rU*rC*rU*rG*rU*rU*rG*rU*rG*rU*rG*rA*rC*rU*rC) [reference compound] |  |  |  |  | essentially completely disappeared

Reference: US20110244025A1, “MODIFIED OLIGORIBONUCLEOTIDE ANALOGS WITH ENHANCED IMMUNOSTIMULATORY ACTIVITY” (priority 2005, published 2011)
